# From US20140357512A1, “HISTONE DEACETYLASE (HDAC) BIOMARKERS IN MULTIPLE MYELOMA” (priority 2013, published 2014)
# System: human myeloma cell line MM.1S
# Assay: Biological pathway analysis of SILAC biomarker peptides against pathway database (broadinstitute gsea)
# Method: Once biomarker peptides are identified for a specific drug by the SILAC method, the biomarker peptides may be compared to peptides/proteins in a biological pathway database in order to identify major biological pathways or functions implicated by the drug's action. A preferred pathway analysis website is at www dot broadinstitute dot org/gsea/index dot jsp.
# This example describes the biological pathway analysis that was performed on each of Compound A, Compound B, and Tubastatin A.
# Once biomarker peptides were identified for a specific drug (either Compound A, Compound B, or Tubastatin A) by the SILAC method in Example 1, the biomarker peptides were compared to peptides/proteins in the biological pathway database at www dot broadinstitute dot org/gsea/index dot jsp in order to identify major biological pathways or functions implicated by the drug's action.
structure (smiles),measurement,setting,value
"O=C(NO)c1cnc(NC2(c3cccc(F)c3)CCCCC2)nc1 [Compound B, 2-((1-(3-fluorophenyl)cyclohexyl)amino)-N-hydroxypyrimidine-5-carboxamide]",Observed: number of genes in pathway REACTOME_PACKAGING_OF_TELOMERE_ENDS,Pathway_size 48,15
same,"Ratio observed/pathway size, REACTOME_PACKAGING_OF_TELOMERE_ENDS",Pathway_size 48,0.3125
same,Observed: number of genes in pathway REACTOME_RNA_POL_I_PROMOTER_OPENING,Pathway_size 61,15
same,"Ratio observed/pathway size, REACTOME_RNA_POL_I_PROMOTER_OPENING",Pathway_size 61,0.2459
same,Observed: number of genes in pathway REACTOME_DEPOSITION_OF_NEW_CENPA_CONTAINING_NUCLEOSOMES_AT_THE_CENTROMERE,Pathway_size 64,15
same,"Ratio observed/pathway size, REACTOME_DEPOSITION_OF_NEW_CENPA_CONTAINING_NUCLEOSOMES_AT_THE_CENTROMERE",Pathway_size 64,0.2344
same,Observed: number of genes in pathway REACTOME_MEIOTIC_SYNAPSIS,Pathway_size 71,16
same,"Ratio observed/pathway size, REACTOME_MEIOTIC_SYNAPSIS",Pathway_size 71,0.2254
same,Observed: number of genes in pathway MORF_PPP2CA,Pathway_size 127,18
same,"Ratio observed/pathway size, MORF_PPP2CA",Pathway_size 127,0.1417
same,Observed: number of genes in pathway MORF_NME2,Pathway_size 154,19
same,"Ratio observed/pathway size, MORF_NME2",Pathway_size 154,0.1234
same,Observed: number of genes in pathway MORF_NPM1,Pathway_size 162,20
same,"Ratio observed/pathway size, MORF_NPM1",Pathway_size 162,0.1235
same,Observed: number of genes in pathway MORF_CTBP1,Pathway_size 168,24
same,"Ratio observed/pathway size, MORF_CTBP1",Pathway_size 168,0.1429
same,Observed: number of genes in pathway MORF_G22P1,Pathway_size 171,23
same,"Ratio observed/pathway size, MORF_G22P1",Pathway_size 171,0.1345
same,Observed: number of genes in pathway MORF_RAD21,Pathway_size 182,20
same,"Ratio observed/pathway size, MORF_RAD21",Pathway_size 182,0.1099
same,Observed: number of genes in pathway PENG_LEUCINE_DEPRIVATION_DN,Pathway_size 187,21
same,"Ratio observed/pathway size, PENG_LEUCINE_DEPRIVATION_DN",Pathway_size 187,0.1123
same,Observed: number of genes in pathway MORF_DAP3,Pathway_size 193,21
same,"Ratio observed/pathway size, MORF_DAP3",Pathway_size 193,0.1088
same,Observed: number of genes in pathway MORF_ANP32B,Pathway_size 197,27
same,"Ratio observed/pathway size, MORF_ANP32B",Pathway_size 197,0.1371
same,Observed: number of genes in pathway MORF_SKP1A,Pathway_size 202,22
same,"Ratio observed/pathway size, MORF_SKP1A",Pathway_size 202,0.1089
same,Observed: number of genes in pathway MORF_AATF,Pathway_size 205,22
same,"Ratio observed/pathway size, MORF_AATF",Pathway_size 205,0.1073
same,Observed: number of genes in pathway MORF_ACP1,Pathway_size 210,22
same,"Ratio observed/pathway size, MORF_ACP1",Pathway_size 210,0.1048
same,Observed: number of genes in pathway MORF_XRCC5,Pathway_size 234,26
same,"Ratio observed/pathway size, MORF_XRCC5",Pathway_size 234,0.1111
same,Observed: number of genes in pathway MORF_UBE2I,Pathway_size 238,31
same,"Ratio observed/pathway size, MORF_UBE2I",Pathway_size 238,0.1303
same,Observed: number of genes in pathway MORF_EIF3S2,Pathway_size 244,25
same,"Ratio observed/pathway size, MORF_EIF3S2",Pathway_size 244,0.1025
same,Observed: number of genes in pathway MORF_HDAC1,Pathway_size 254,30
same,"Ratio observed/pathway size, MORF_HDAC1",Pathway_size 254,0.1181
same,Observed: number of genes in pathway MORF_DEK,Pathway_size 262,29
same,"Ratio observed/pathway size, MORF_DEK",Pathway_size 262,0.1107
same,Observed: number of genes in pathway MORF_RAN,Pathway_size 268,33
same,"Ratio observed/pathway size, MORF_RAN",Pathway_size 268,0.1231
same,Observed: number of genes in pathway MORF_BUB3,Pathway_size 276,27
same,"Ratio observed/pathway size, MORF_BUB3",Pathway_size 276,0.09783
same,Observed: number of genes in pathway MORF_SOD1,Pathway_size 277,23
same,"Ratio observed/pathway size, MORF_SOD1",Pathway_size 277,0.08303
same,Observed: number of genes in pathway MORF_CSNK2B,Pathway_size 287,27
same,"Ratio observed/pathway size, MORF_CSNK2B",Pathway_size 287,0.09408
same,Observed: number of genes in pathway MORF_GNB1,Pathway_size 303,30
same,"Ratio observed/pathway size, MORF_GNB1",Pathway_size 303,0.09901
same,Observed: number of genes in pathway PENG_GLUTAMINE_DEPRIVATION_DN,Pathway_size 337,25
same,"Ratio observed/pathway size, PENG_GLUTAMINE_DEPRIVATION_DN",Pathway_size 337,0.07418
same,Observed: number of genes in pathway MORF_RAD23A,Pathway_size 345,34
same,"Ratio observed/pathway size, MORF_RAD23A",Pathway_size 345,0.09855
same,Observed: number of genes in pathway HSIAO_HOUSEKEEPING_GENES,Pathway_size 389,36
same,"Ratio observed/pathway size, HSIAO_HOUSEKEEPING_GENES",Pathway_size 389,0.09255
same,Observed: number of genes in pathway REACTOME_CELL_CYCLE,Pathway_size 412,29
same,"Ratio observed/pathway size, REACTOME_CELL_CYCLE",Pathway_size 412,0.07039
same,Observed: number of genes in pathway CASORELLI_ACUTE_PROMYELOCYTIC_LEUKEMIA_DN,Pathway_size 662,31
same,"Ratio observed/pathway size, CASORELLI_ACUTE_PROMYELOCYTIC_LEUKEMIA_DN",Pathway_size 662,0.04683
same,Observed: number of genes in pathway KIM_BIPOLAR_DISORDER_OLIGODENDROCYTE_DENSITY_CORR_UP,Pathway_size 681,31
same,"Ratio observed/pathway size, KIM_BIPOLAR_DISORDER_OLIGODENDROCYTE_DENSITY_CORR_UP",Pathway_size 681,0.04552
same,Observed: number of genes in pathway BENPORATH_MYC_MAX_TARGETS,Pathway_size 775,35
same,"Ratio observed/pathway size, BENPORATH_MYC_MAX_TARGETS",Pathway_size 775,0.04516
same,Observed: number of genes in pathway PUJANA_CHEK2_PCC_NETWORK,Pathway_size 778,39
same,"Ratio observed/pathway size, PUJANA_CHEK2_PCC_NETWORK",Pathway_size 778,0.05013
same,Observed: number of genes in pathway GRADE_COLON_CANCER_UP,Pathway_size 870,40
same,"Ratio observed/pathway size, GRADE_COLON_CANCER_UP",Pathway_size 870,0.04598
same,Observed: number of genes in pathway MACROMOLECULAR_COMPLEX,Pathway_size 945,34
same,"Ratio observed/pathway size, MACROMOLECULAR_COMPLEX",Pathway_size 945,0.03598
same,Observed: number of genes in pathway LOPEZ_MBD_TARGETS,Pathway_size 957,37
same,"Ratio observed/pathway size, LOPEZ_MBD_TARGETS",Pathway_size 957,0.03866
same,Observed: number of genes in pathway DANG_BOUND_BY_MYC,Pathway_size 1102,46
same,"Ratio observed/pathway size, DANG_BOUND_BY_MYC",Pathway_size 1102,0.04174
same,Observed: number of genes in pathway INTRACELLULAR_ORGANELLE_PART,Pathway_size 1192,47
same,"Ratio observed/pathway size, INTRACELLULAR_ORGANELLE_PART",Pathway_size 1192,0.03943
same,Observed: number of genes in pathway ORGANELLE_PART,Pathway_size 1197,47
same,"Ratio observed/pathway size, ORGANELLE_PART",Pathway_size 1197,0.03927
same,Observed: number of genes in pathway BLALOCK_ALZHEIMERS_DISEASE_DN,Pathway_size 1237,49
same,"Ratio observed/pathway size, BLALOCK_ALZHEIMERS_DISEASE_DN",Pathway_size 1237,0.03961
same,Observed: number of genes in pathway DODD_NASOPHARYNGEAL_CARCINOMA_DN,Pathway_size 1368,39
same,"Ratio observed/pathway size, DODD_NASOPHARYNGEAL_CARCINOMA_DN",Pathway_size 1368,0.02851
same,Observed: number of genes in pathway DIAZ_CHRONIC_MEYLOGENOUS_LEUKEMIA_UP,Pathway_size 1382,58
same,"Ratio observed/pathway size, DIAZ_CHRONIC_MEYLOGENOUS_LEUKEMIA_UP",Pathway_size 1382,0.04197
same,Observed: number of genes in pathway NUCLEUS,Pathway_size 1428,40
same,"Ratio observed/pathway size, NUCLEUS",Pathway_size 1428,0.02801
same,Observed: number of genes in pathway PUJANA_ATM_PCC_NETWORK,Pathway_size 1440,41
same,"Ratio observed/pathway size, PUJANA_ATM_PCC_NETWORK",Pathway_size 1440,0.02847
same,Observed: number of genes in pathway PUJANA_BRCA1_PCC_NETWORK,Pathway_size 1651,68
same,"Ratio observed/pathway size, PUJANA_BRCA1_PCC_NETWORK",Pathway_size 1651,0.04119
same,Observed: number of genes in pathway GRAESSMANN_APOPTOSIS_BY_DOXORUBICIN_DN,Pathway_size 1781,44
same,"Ratio observed/pathway size, […]_APOPTOSIS_BY_DOXORUBICIN_DN",Pathway_size 1781,0.02471
same,Observed: number of genes in pathway PILON_KLF1_TARGETS_DN,Pathway_size 1972,45
same,"Ratio observed/pathway size, PILON_KLF1_TARGETS_DN",Pathway_size 1972,0.02282
same,Observed: number of genes in pathway CYTOPLASM,Pathway_size 2130,50
same,"Ratio observed/pathway size, CYTOPLASM",Pathway_size 2130,0.02347
same,Observed: number of genes in pathway GGGCGGR_V$SP1_Q6,Pathway_size 2939,53
same,"Ratio observed/pathway size, GGGCGGR_V$SP1_Q6",Pathway_size 2939,0.01803
